Experimental findings from publication PMC3156385 (Chemical research in toxicology, 2011) are described below.

As usually defined, the Kd is the free concentration of one partner at which half of the binding sites on the other are occupied at equilibrium, for simple one-to-one binding. Usually IC50 stands for the midpoint of a concentration-inhibition curve. Low readings indicate higher potency, high ones lower potency.

The target of one data set is T1, P450 2A6 (Homo sapiens, UniProt P11509).
T1 sequence (P11509 1-494): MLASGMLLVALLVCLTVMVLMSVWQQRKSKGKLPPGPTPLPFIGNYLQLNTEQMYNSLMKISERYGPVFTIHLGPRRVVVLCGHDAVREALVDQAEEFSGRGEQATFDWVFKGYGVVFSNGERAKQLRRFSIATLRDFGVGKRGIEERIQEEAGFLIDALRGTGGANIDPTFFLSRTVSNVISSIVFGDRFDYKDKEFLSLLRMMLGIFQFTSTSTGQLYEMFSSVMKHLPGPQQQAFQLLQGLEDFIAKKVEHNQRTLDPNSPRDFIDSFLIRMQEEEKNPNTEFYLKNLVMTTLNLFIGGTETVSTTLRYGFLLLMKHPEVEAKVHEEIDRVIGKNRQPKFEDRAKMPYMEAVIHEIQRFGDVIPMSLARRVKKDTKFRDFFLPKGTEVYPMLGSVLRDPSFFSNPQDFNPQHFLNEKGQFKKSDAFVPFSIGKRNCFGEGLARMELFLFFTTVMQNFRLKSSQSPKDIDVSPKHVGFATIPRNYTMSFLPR
It is filed as biochemical.

Another data set deals with T2, P450 1A2 (Homo sapiens, UniProt P05177).
T2 sequence (P05177 1-516): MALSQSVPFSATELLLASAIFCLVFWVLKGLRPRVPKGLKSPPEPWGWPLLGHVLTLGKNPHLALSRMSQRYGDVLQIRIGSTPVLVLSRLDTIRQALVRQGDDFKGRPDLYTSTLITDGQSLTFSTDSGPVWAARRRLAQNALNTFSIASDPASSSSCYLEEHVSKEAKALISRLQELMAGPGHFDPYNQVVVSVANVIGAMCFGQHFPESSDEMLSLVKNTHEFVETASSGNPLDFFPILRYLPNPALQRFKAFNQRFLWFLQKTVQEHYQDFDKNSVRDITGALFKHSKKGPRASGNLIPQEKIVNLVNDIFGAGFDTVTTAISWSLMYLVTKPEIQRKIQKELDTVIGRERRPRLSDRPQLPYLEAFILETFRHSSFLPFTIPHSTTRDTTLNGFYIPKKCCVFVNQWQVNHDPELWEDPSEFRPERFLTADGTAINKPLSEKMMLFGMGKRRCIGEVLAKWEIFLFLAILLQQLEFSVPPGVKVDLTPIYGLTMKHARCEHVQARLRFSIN
The data set can be described thus: Spectral binding titration with purified recombinant P450 1A2. The following applies: for ΔAmax/Ks / ΔAmax: Reverse Type I binding, 1 µM P450; for ΔAmax: means ± SE.

For a further data set, the target named is T3, P450 1A1 (Homo sapiens, UniProt P04798).
T3 sequence (P04798 1-512): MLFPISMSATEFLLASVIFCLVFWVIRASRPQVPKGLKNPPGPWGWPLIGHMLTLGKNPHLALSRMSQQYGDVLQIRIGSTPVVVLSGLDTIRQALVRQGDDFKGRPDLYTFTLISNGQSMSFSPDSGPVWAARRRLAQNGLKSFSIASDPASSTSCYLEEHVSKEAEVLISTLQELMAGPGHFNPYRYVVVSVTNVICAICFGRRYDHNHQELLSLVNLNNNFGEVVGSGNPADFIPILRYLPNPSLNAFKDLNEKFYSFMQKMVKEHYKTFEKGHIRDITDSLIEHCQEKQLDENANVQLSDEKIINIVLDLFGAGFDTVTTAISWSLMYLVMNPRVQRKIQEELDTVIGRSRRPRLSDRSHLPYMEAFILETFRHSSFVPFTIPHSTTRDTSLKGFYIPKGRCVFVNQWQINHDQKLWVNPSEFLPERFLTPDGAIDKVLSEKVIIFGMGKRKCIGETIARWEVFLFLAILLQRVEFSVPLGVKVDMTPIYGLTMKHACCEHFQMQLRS
The data set can be described thus: Spectral binding titration with purified recombinant P450 1A1. The following applies: for ΔAmax/Ks / ΔAmax: Reverse Type I binding, 1 µM P450; for ΔAmax: means ± SE.

The next data set has as its target T4, P450 1B1 (Homo sapiens, UniProt Q16678).
T4 sequence (Q16678 1-543): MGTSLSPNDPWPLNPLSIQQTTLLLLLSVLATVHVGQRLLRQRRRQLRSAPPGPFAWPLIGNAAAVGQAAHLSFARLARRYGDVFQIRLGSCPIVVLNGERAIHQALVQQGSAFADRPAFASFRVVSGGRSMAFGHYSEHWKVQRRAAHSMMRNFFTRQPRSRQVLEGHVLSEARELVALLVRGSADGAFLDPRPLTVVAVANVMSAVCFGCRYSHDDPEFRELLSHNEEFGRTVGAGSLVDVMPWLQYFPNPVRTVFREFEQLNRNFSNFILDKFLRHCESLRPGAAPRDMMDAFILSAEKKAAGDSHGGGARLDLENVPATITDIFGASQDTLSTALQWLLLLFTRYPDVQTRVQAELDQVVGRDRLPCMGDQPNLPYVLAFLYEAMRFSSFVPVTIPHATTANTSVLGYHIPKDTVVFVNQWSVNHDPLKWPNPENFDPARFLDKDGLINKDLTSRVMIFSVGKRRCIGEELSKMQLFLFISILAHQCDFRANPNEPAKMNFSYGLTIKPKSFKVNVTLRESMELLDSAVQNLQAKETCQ
The data set can be described thus: Inhibition of P450 1B1-dependent EROD activity. It is filed as biochemical.

Data set [1] concerns the target T5, P450 2A13 (Homo sapiens, UniProt Q16696).
T5 sequence (Q16696 1-494): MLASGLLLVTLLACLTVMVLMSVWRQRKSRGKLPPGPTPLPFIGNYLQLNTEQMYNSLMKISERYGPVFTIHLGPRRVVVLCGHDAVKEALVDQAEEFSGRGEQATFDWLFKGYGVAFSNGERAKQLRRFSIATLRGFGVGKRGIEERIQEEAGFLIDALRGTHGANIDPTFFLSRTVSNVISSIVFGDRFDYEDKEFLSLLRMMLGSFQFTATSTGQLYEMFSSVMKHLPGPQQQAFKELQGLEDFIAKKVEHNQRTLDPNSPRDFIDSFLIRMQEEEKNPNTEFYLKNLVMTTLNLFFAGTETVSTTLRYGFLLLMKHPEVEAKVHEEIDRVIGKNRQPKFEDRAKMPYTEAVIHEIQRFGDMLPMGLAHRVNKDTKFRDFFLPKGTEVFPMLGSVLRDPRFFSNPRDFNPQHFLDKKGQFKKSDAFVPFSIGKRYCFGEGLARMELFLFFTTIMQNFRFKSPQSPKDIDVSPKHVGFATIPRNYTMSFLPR
It is filed as biochemical.

For data set [2], the target named is T5, P450 2A13. Briefly: Spectral binding titration with purified recombinant P450 2A13. Conditions: for ΔAmax/Ks / ΔAmax: Type I binding; for ΔAmax: means ± SE.
For data set [3], the system named is P450 2A13. The description is as above. Conditions: Ks P450 2A6 / Ks P450 2A13.
The mark [4] stands for this setting: preincubation 15 min with NADPH vs without.

Like-named read-outs stand apart in the source and are kept apart here.

As to `N#C[Se]Cc1cccc(C[Se]C#N)c1` [m-XSC, 1,3-phenylenebis(methylene)selenocyanate], the “effect of preincubation on inhibition potency of coumarin 7-hydroxylation” value on P450 2A6 (setting [4]) and on P450 2A13 [1] (setting [4]) was “did not change the inhibition potencies” throughout. For the same compound, the “coumarin 7-hydroxylation, % of control” value was 48 % of control at P450 2A6 (with preincubation 15 min with NADPH, 1.0 µM coumarin, BSC 4.3 µM, m-XSC 0.68 µM); 48 % of control at P450 2A6 (without preincubation, 1.0 µM coumarin, BSC 4.3 µM, m-XSC 0.68 µM); 54 % of control at P450 2A13 [1] (with preincubation 15 min with NADPH, 1.0 µM coumarin, BSC 1.2 µM, m-XSC 0.22 µM); 56 % of control on P450 2A13 [1] (without preincubation, 1.0 µM coumarin, BSC 1.2 µM, m-XSC 0.22 µM). The “coumarin 7-hydroxylation” value on P450 2A6 (without preincubation, 1.0 µM coumarin, BSC 4.3 µM, m-XSC 0.68 µM, control 3.26) is reported as 1.56 nmol/min/nmol P450; on P450 2A13 [1] (without preincubation, 1.0 µM coumarin, BSC 1.2 µM, m-XSC 0.22 µM, control 1.04) it was 0.59 nmol/min/nmol P450. Further, the Kd on P450 1A2 was 13 ± 1.9 µM; on P450 1A1 it was 30 ± 4.5 µM; on P450 2A13 [2] it was 0.2 ± 0.015 µM. For the same compound, the ΔAmax/Ks on P450 1A2 is given as 0.46 × 10^−3; on P450 1A1, 0.60 × 10^−3; at P450 2A13 [2] (1 µM P450), 395.00 × 10^−3; at P450 2A13 [2] (as printed in text without ×10^−3) it was 0.40. The ΔAmax at P450 1A2 is 5.8 ± 0.25 × 10^−3; at P450 1A1 it was 18 ± 1.2 × 10^−3; at P450 2A13 [2] (1 µM P450) it was 79 ± 0.91 × 10^−3. Moreover, the “metabolism-dependent inhibition of P450 1B1 (EROD)” value on P450 1B1 (m-XSC 0.033, 0.083, 0.33 µM, preincubation 2 and 4 min with NADPH) is “no metabolism-dependent inhibition”. The “Ks of P450 2A13 lower than with P450 2A6” value with P450 2A13 [3] is on record as 28 fold.
On to `N#C[Se]Cc1ccccc1` [BSC, benzyl selenocyanate], for which the “effect of preincubation on inhibition potency of coumarin 7-hydroxylation” value on P450 2A6 and at P450 2A13 [1] was “did not change the inhibition potencies” throughout. Further, the Kd on P450 1A2 amounted to 11 ± 2.3 µM; at P450 1A1 it was 23 ± 4.1 µM; at P450 2A13 [2], 0.2 ± 0.021 µM. Moreover, the ΔAmax/Ks on P450 1A2 is 0.88 × 10^−3; on P450 1A1, 0.61 × 10^−3; at P450 2A13 [2] (1 µM P450) it was 470.00 × 10^−3. Also, the ΔAmax was 9.5 ± 0.57 × 10^−3 at P450 1A2, 14 ± 1.0 × 10^−3 at P450 1A1 and 94 ± 1.5 × 10^−3 at P450 2A13 [2] (1 µM P450). The figures for the “type of binding spectra” value at P450 1A1 (difference spectra) and at P450 2A13 [2] (difference spectra) were “Reverse Type I” and “Type I”, respectively. The compound further displayed an IC50 against P450 1B1 of 0.27 ± 0.031 µM. The “Ks of P450 2A13 lower than with P450 2A6” value in the data set on P450 2A13 [3] worked out at 10 fold.
